Among the data in ChEMBL document CHEMBL1127942, “Phenol based tripeptide inhibitors of ras farnesyl protein transferase” (Bioorg Med Chem Lett, 1994) are IC50 values, retold here.

The target of this experiment is Protein farnesyltransferase (Homo sapiens, UniProt P49354+P49356). The experiment in a line: Inhibition of Protein farnesyltransferase (FPT). The class given is protein-complex assay. Conditions: read-out: I50.
`CC(C)C[C@H](NC(=O)[C@@H](NC(=O)CCS)C(C)C)C(=O)N[C@@H](CO)C(=O)O`: the IC50 was 1 µM.
With `CC(C)C[C@H](NC(=O)[C@@H](NC(=O)c1ccc(OCc2ccccc2)cc1)C(C)C)C(=O)N[C@@H](CO)C(=O)O`, the IC50 was found to be 166 µM.
In the case of `CC(C)C[C@H](NC(=O)[C@@H](NC(=O)c1ccc(O)cc1)C(C)C)C(=O)N[C@@H](CO)C(=O)O` it was > 360 µM; in that of `CC(C)C[C@H](NC(=O)[C@@H](NC(=O)c1cc(O)ccc1OCc1ccccc1)C(C)C)C(=O)N[C@@H](CO)C(=O)O`, 137 µM; in that of `CC(C)C[C@H](NC(=O)[C@@H](NC(=O)c1ccccc1OCc1ccccc1)C(C)C)C(=O)N[C@@H](CO)C(=O)O`, 63 µM.
In the case of `CC(C)C[C@H](NC(=O)[C@@H](NC(=O)c1cccc(O)c1)C(C)C)C(=O)N[C@@H](CO)C(=O)O` it was 29 µM.
In the case of `CC(C)C[C@H](NC(=O)[C@@H](NC(=O)c1ccccc1O)C(C)C)C(=O)N[C@@H](CO)C(=O)O` it was > 360 µM; in that of `CC(C)C[C@H](NC(=O)[C@@H](NC(=O)c1cccc(OCc2ccccc2)c1O)C(C)C)C(=O)N[C@@H](CO)C(=O)O`, > 360 µM; in that of `CC(C)C[C@H](NC(=O)[C@@H](NC(=O)c1cccc(O)c1OCc1ccccc1)C(C)C)C(=O)N[C@@H](CO)C(=O)O`, 157 µM.
On to `CC(C)C[C@H](NC(=O)[C@@H](NC(=O)[C@@H](N)CO)C(C)C)C(=O)N[C@@H](CO)C(=O)O`, for which the IC50 is > 360 µM.
The value for `CC(C)C[C@H](NC(=O)[C@@H](NC(=O)c1cccc(OCc2ccccc2)c1)C(C)C)C(=O)N[C@@H](CO)C(=O)O` was > 360 µM.
